Data taken from a melting point compilation (Tetko et al.; mined from patent text by program, amines drawn as free bases though some values may be those of a salt).

Row | melting point [°C] | Compound
1 | 121 | Cc1ccc(C2(Cn3cncn3)OCCO2)cc1Br
2 | 97 to 98 | COc1cc(OC)c(C=O)cn1
3 | 111 to 112 | C=CCCCCC1CCC(CC)(CC(=O)O)c2[nH]c3c(C)cccc3c21 (stereo not given)
4 | 217 | CCOC(=O)c1c(Cl)c2cc(F)cnc2[nH]c1=O
5 | 104 to 106 | COc1ccc(-c2cc(C)c3nc(OC)ccc3c2)cc1
6 | 86 to 89 | CCCCCCCCCCCCOC(=O)c1ccc(O)c(N)c1
7 | 43 to 44 | COC(=O)Cc1ccc(C(C)=O)s1
8 | 160 to 161 | CC(C)(C)c1ccc(C(O)CCCN2CCC(=C3c4ccccc4COc4ccccc43)CC2)cc1 (stereo not given)
9 | 177 to 181 | O=C(O)c1cc2cc(Cl)ccc2nc1NC(Cc1cccc(F)c1)C(=O)O (stereo not given)
10 | 150 to 151 | COc1cc(C(=O)c2cccnc2)ccc1O
11 | 199 to 202 | COc1ccc(-n2c(=O)c(-c3ccccc3)nc3ccccc32)cc1
12 | 80 to 82 | CC(C)(C#N)c1ccc(C(=O)C2CC2)cc1
13 | 130 to 132 | O=C(O)CN1CCNCC1
14 | 176 to 178 | COC(=O)C1=C(C)NC(C)=C(S(=O)(=O)c2ccc(OC)cc2)C1c1ccccc1Cl (stereo not given)
15 | 118 to 119 | COC(=O)c1ccc(-n2c(C)ccc2C#N)cc1
16 | 67 to 70 | COCCc1cccc2oc(C(=O)Nc3ccc(-c4ccc(S(=O)(=O)NC(C(=O)OC)C(C)C)cc4)cc3)c(C)c12 (stereo not given)
17 | 107 | COC(=O)C=Cc1ccc(Cl)c([N+](=O)[O-])c1
18 | 214 to 215 | N#Cc1ccc(N(Cc2ccc(OS(N)(=O)=O)c(Cl)c2)n2cnnc2)cc1-c1cc2ccccc2o1
19 | 174 to 175 | CS(=O)(=O)c1csc(CC(=O)C(=O)c2ccc(F)cc2)c1
20 | 182 to 184 | CC(C)Oc1ccc(OCc2ccccc2)cc1-c1nc2cc(CNCC(=O)O)cnc2[nH]1
21 | 314 to 317 | Cn1cc2c(C3C(=O)Nc4ccc(Br)cc43)nc(NCCc3cccnc3)nc2n1 (stereo not given)
22 | 226 to 229 | CC(C)(C)OC(=O)N1CCNC(C(=O)O)C1 (stereo not given)
23 | 241 to 242 | O=C(CCC(=O)c1ccc(CCNS(=O)(=O)c2ccccc2)cc1)Nc1nnn[nH]1
24 | 131 | COc1cc(OC)c([N+](=O)[O-])nc1NCCO

Row | melting point [°C] | Compound
25 | 131 to 132 | COC(=O)C1=CNC=Cc2c1n(C)c1ccccc21
26 | 242 to 244 | Cc1cc(-c2cccc3[nH]ccc23)nc(N)n1
27 | 147 to 149 | CCOC1CC2(C)C(CCC3C4CCC(C(C)=O)C4(C)CC(NC(=O)OCC(Cl)(Cl)Cl)C32)CC1OC(=O)OCC(Cl)(Cl)Cl (stereo not given)
28 | 158 to 160 | C[C@H](c1ncnc(Sc2ccc(Cl)cc2)c1F)[C@@](O)(Cn1cncn1)c1ccc(F)cc1F
29 | 100 to 102 | CCC(OC)(c1ccc(OCc2ccc3ccccc3n2)c(OC)c1)c1nccs1 (stereo not given)
30 | 133 | Cc1cc2cccc(OCCNCc3cccc(C4=CCCC4)c3)c2o1
31 | 146 to 147 | Cc1sc2c(c1C(=O)CCN1CCN(c3nsc4ccccc34)CC1)NC(=O)CCC2
32 | 175 to 177 | CCn1nc(C)c([N+](=O)[O-])c1C(N)=O
33 | 132 to 134 | CCOC(=O)C=Cc1cc2c(cn1)[nH]c1ccccc12
34 | 238 to 239 | COc1cc2c(cc1OC)[C@@H](c1ccc([N+](=O)[O-])cc1)NN(C1=NC(=O)CS1)[C@@H](C)C2
35 | 220 to 221 | O=C(CC1CCCCC1)Nc1c(Cl)ccc2nc(N3CC[C@H](NCCc4nn[nH]n4)C3)ccc12
36 | 131 to 133 | CC1(C)COc2ccc(C[C@@H](NC(=O)c3ccc(F)c4ccccc34)[C@@H](O)c3cccc(Cl)c3)cc21 (racemic)
37 | 225 | O=C(O)c1ccc(-c2ncn(-c3ccc(OC(F)(F)C(F)(F)F)cc3)n2)cc1
38 | 166 | C#Cc1cnn2c(C(F)(F)F)cc(-c3ccc(Cl)c(C)c3)nc12
39 | 108 to 110 | COC(OC)c1cccc(C=Cc2cccc(-n3cccc3)c2)c1
40 | 259 to 262 | CC1(C)C(=O)c2c(cc(O)c(Cl)c2Cl)C1c1ccccc1 (stereo not given)
41 | 69 to 71 | CC(C)C[C@@H](C(=O)O)N(C)C(=O)OCc1ccccc1
42 | 160 to 161 | CC(NS(=O)(=O)c1ccc([N+](=O)[O-])cc1[N+](=O)[O-])c1ccccc1 (stereo not given)
43 | 118 to 120 | O=C(NCCCc1ccc(CC(CCCc2ccccc2)(C(=O)OCc2ccccc2)C(=O)OCc2ccccc2)cc1)c1ccc(-c2ccccn2)cc1
44 | 145 | COc1cc(-c2nc3ccc(OCCN4CCCCC4)cc3n2Cc2ccccc2Br)cc(OC)c1OC
45 | 102 | CCC(Oc1ccccc1Br)C(=O)O (stereo not given)
46 | 133 to 141 | CC(=O)C1CCC2C3CCC4CC(O)(Cc5ccccc5)CCC4(C)C3CCC12C (stereo not given)
47 | 174 to 176 | CC(C)(C)OC(=O)NC(Cc1ccccc1)C(O)CNCC(O)C(Cc1ccccc1)NC(=O)C1c2ccccc2CN1C=O (stereo not given)
48 | 182 to 186 | Cc1cc2nncn2nc1-c1cccc(N)c1

Row | melting point [°C] | Compound
49 | 154 to 156 | O=C(CCc1nnc(Nc2ccccc2Cl)o1)NC1CCN(Cc2ccc(Cl)c(Cl)c2)CC1
50 | 102 to 104 | Cc1ccc(O)c(C)c1O
51 | > 220 | CC(NC1=NS(=O)(=O)c2cc(Br)ccc2N1)C(C)(C)C (stereo not given)
52 | 208 to 210 | Cc1cc(Cc2c(F)cc(N)cc2F)n(C)c1C(=O)c1ccc(Cl)cc1
53 | 190 to 191 | N#CCCCOc1ccc(C(=O)Nc2ccc(-n3nc(-c4cccnc4)cc3C#N)cc2)cn1
54 | 150 to 153 | CC(C)(C)OC(=O)[C@@H]1CCCN1C(=O)CNS(=O)(=O)c1cccc2cccnc12
55 | 232 to 234 | O=c1c2cc(F)c(N3CCCC3)cc2n(-c2ccc(F)cc2F)c(=O)n1O
56 | 142 to 143 | CNCCNC(=O)c1nc(Cl)c(N)nc1N
57 | 236 to 237 | Cc1cc2c(cc1Sc1ccc(C(=O)Nc3ccc(O)cc3)cc1)C(C)(C)CCC2(C)C
58 | 226 to 228 | COc1ccc(-c2ccc(Cl)nn2)cc1Br
59 | > 300 | N=C(N)c1nc2c(s1)CCc1c-2sc2ncnn12
60 | 162 to 164 | CC(C)(C)OC(=O)NCc1cc(N=C(N)c2cccs2)ccc1N1CCN(C(=O)CCCCC2CCSS2)CC1 (stereo not given)
61 | 135 to 140 | COc1ncc(Cl)cc1C(O)C=Cc1ccc(Cl)cc1 (stereo not given)
62 | 157 to 161 | CCC(=CC(CNC(=O)c1ccc(N)nc1)=NO)C(C)[N+](=O)[O-] (stereo not given)
63 | 97 to 98 | Cc1oc(-c2ccccc2)nc1COc1ccc(COc2ncccc2C=O)cc1
64 | 162 to 164 | COc1ccc(N2CC(=O)N(CCN)C2=O)cc1OC
65 | 173 to 174 | CC(C)Oc1ccc(C(=O)O)c(Cl)n1
66 | 220 to 221 | CN1CCN(c2ccc(N/C=C3\C(=O)NC(=O)c4ccc(I)cc43)cc2)CC1
67 | 213 to 215 | O=C(O)c1ccc(NCCC(c2ccc(Cl)cc2)c2ccc(Cl)cc2)cc1
68 | 100 to 102 | CCC(CC)Nc1c([N+](=O)[O-])cc(C)c(C=CN(C)C)c1[N+](=O)[O-]
69 | 90 to 91 | c1ccc2c(c1)C(=NOCCN1CCOCC1)c1ccccc1C1CC21 (stereo not given)
70 | 250 | Cn1cncc1C(O)(c1ccc2ncccc2c1)c1ccc2nc(Cl)nc(-c3cccc(Cl)c3)c2c1 (stereo not given)
71 | 102 | CCCc1c(O)ccc2c1OC(C)(CCC(=O)OC)CC2=O (stereo not given)
72 | 256 to 258 | CC(C)(C)[Si](C)(C)OC1CN(S(C)(=O)=O)Cc2nc3c(N)nc4ccccc4c3n2C1 (stereo not given)

Row | melting point [°C] | Compound
73 | 141 | Cc1nc(Br)c(C=O)n1Cc1cc2c(cc1Cl)OCO2
74 | 108 to 110 | CC(=O)c1cnc2c(cnn2Cc2ccco2)c1O
75 | 245 to 247 | CC(=O)NCC1CN(c2ccc(N3CCN(c4nc(=O)n(-c5ccccc5)s4)CC3)c(F)c2)C(=O)O1 (stereo not given)
76 | 256 to 257 | O=c1[nH]c2cc(Cl)ccc2n1-c1cc(Cl)ccc1O
77 | 182 | CN(C)C(=O)COc1ccc2ccc(N)nc2n1
78 | 194 to 195 | O=C(N1CCN(c2ccncc2Cl)CC1)N1CCN(S(=O)(=O)c2ccc(Br)cc2)CC1
79 | 128 to 129 | CC(C)n1c(CCC2C[C@@H](O)CC(=O)O2)c(-c2ccc(F)cc2)c(-c2ccccc2)c1C(=O)Nc1ccccc1 (stereo not given in full)
80 | 160 to 161 | O=C(CCCCl)Nc1ccc2[nH]ncc2c1
81 | 184 to 186 | Cc1cscc1NC(=S)Nc1cccc(C)c1N
82 | 153 to 154 | Cc1ccc(-c2cccc(/C=C/C(=O)Nc3ccc(CN4CCCC(CO)C4)cc3)c2)cc1 (stereo not given)
83 | 110 to 112 | C=Cc1ccc(COc2ccc(CCl)cc2)cc1
84 | 186 to 189 | O=S1(=O)NC(c2ccccc2)Nc2c(Br)cc(Br)cc21 (stereo not given)
85 | 80 to 81 | COc1cc(C(=O)CCCC2CCCCC2)c(OC)cc1Cl
86 | 115 to 118 | CCCn1c(=O)c2c(C(=O)OCCN(C)C)ncn2c2ccccc21
87 | 198 to 200 | CCOC(=O)c1cn(C)c2cnc3cc(N4CCCC(C)(C)C4)c(F)cc3c2c1=O
88 | 99 | CCCOc1ccc(CC(=O)NCCc2ccc(OCC)c(OCC)c2)cc1OCCC
89 | 102 to 103 | COC(=O)CCC(=O)c1cccc(O)c1
90 | 199 to 201 | CCCNC(=O)c1cnc2c(c1O)CN(C(=O)OCC)CC2
91 | 294 to 295 | CC(=O)Nn1c(=S)[nH]c2cc(C(F)(F)F)ccc21
92 | 141 to 142 | Cc1oc(-c2ccc3ccccc3c2)nc1COc1ccc(CCCC2OCCO2)cc1
93 | 162 to 164 | CCONC(=O)c1cccc(NC(C)=C2C(=O)OC(=O)C(C(C)=O)=C2O)c1
94 | 268 to 270 | O=C1NCCc2[nH]c3c(Br)cccc3c21
95 | 57 to 59 | COc1cc(Sc2ccccc2CCl)ccc1Cl

Row | Compound | melting point [°C]
96 | O=c1c2cc(Br)ccc2nc(C(S)c2ncnc3[nH]cnc23)n1-c1ccccc1Cl (stereo not given) | 212 to 242
97 | Cc1cccc(C)c1C(=O)Nc1cccc2c1CCN(C)C2 | 200 to 201
98 | O=C1C2CCN(CC2)C1CC(c1ccccc1)c1ccccc1 (stereo not given) | 107
99 | CC(C)(Oc1ccc(CCN)cc1)C(=O)O | 187 to 189
100 | CC(=O)OC1CCC2(C)C(=CCC3C2CCC2(C)C3CC(OC(C)=O)C2OC(C)=O)C1 (stereo not given) | 127 to 129
